In patent US20250186520A1, “ONCOLYTIC VIRUS COMPOSITIONS AND METHODS FOR THE TREATMENT OF CANCER” (priority 2020, published 2025):

Experiments:
Gli36ΔEGFR cells = assay: NK cell cytotoxicity (51Cr release) against TMZ-pretreated cells; format: cell-based, human
Description: TMZ, which is an imidazotetrazine that is converted to a compound capable of alkylating DNA, interferes with DNA replication and leading to cytotoxicity in proliferating cells, and has been in clinical trials for treating GBM. To detect whether OV-Cmab-CCL5 enhanced TMZ function for treating GBM, the combination therapy with OV-Cmab-CCL5 and TMZ in vivo and in vitro was performed. Gli36ΔEGFR cells were treated with 1 μM TMZ overnight, and the pretreated cells were ^51Cr-labeled and used as target cells. These cells were then incubated with 5 μg/ml Cmab-hCCL5 or vehicle for 30 min. The effector NK cells and target cells were then co-cultured at the ratios of 40:1, 20:1, and 10:1 for 4 hours and assayed for cytotoxicity. […] This function was also detected as induced by the supernatants from OV-Cmab-hCCL5-infected Gli36ΔEGFR cells. Consistent data were collected.

[1] = system: human macrophages co-cultured with GBM30 cells; assay: Quantitative PCR of human macrophage cytokine genes; format: cell-based; settings: vs IgG1 isotype control
Description: For evaluating the effect of Cmab-hCCL5 on mRNA levels of typical human macrophage cytokine genes, human macrophages and GBM30 cells were co-cultured at a ratio of 1:1 for 6 hours with or without 5 μg/ml Cmab-hCCL5. The macrophages were stained with anti-human CD45 antibody and sorted using an Aria Fusion flow cytometer (BD Biosciences). The total RNA was extracted from the sorted macrophages for measuring the mRNA levels of human IL1B, IL6, IL12A, and NOS2 genes with their corresponding primers. 18s rRNA was used as an internal control.

[2] = system: human NK cells co-cultured with GBM30 cells; assay: NK cell activation assay (CD69, granzyme B by flow cytometry); format: cell-based; settings: purified protein
Description: (§1) NK cell cytotoxicity was evaluated as previously described (13,64,65). Briefly, U251T2, GBM30, Gli36ΔEGFR, and CT2A-hEGFR cells were used as target cells. The target cells were labeled with ^51Cr for 1 h, followed by incubation with 5 μg/ml or 10 μg/ml of the Cmab-hCCL5 fusion protein or IgG1 isotype control for 30 min. The labeled target cells preincubated with the Cmab-hCCL5 fusion protein or IgG1 were co-cultured with isolated human primary NK cells at different effector:target ratios at 37° C. for 4 h. Release of ^51Cr was measured as counts per minute (cpm) with a MicroBeta(2) microplate radiometric counter (Perkin Elmer, Waltham, MA). […] The cell lysis percentages were calculated using the standard formula: 100×(cpm experimental release−cpm spontaneous release)/(cpm maximal release−cpm spontaneous release). […] The expression of CD69 and granzyme B, NK cell activation markers, were measured after 6-hour co-culture of NK cells and GBM30 cells with 5 μg/ml or 10 μg/ml of Cmab-hCCL5 at a ratio of 1:1 with a flow cytometer after the cells were stained with the anti-CD56 (BD, cat #557919) and anti-CD69 (BD, cat #562883) or anti-granzyme B (BD, cat #563388) antibodies. Following similar procedures, mouse CD69 was measured by an anti-CD69 (BD, cat #564683) antibody, and NK cells were marked by an anti-NKp46 (Biolegend, cat #137618) antibody.

[3] = system: EGFR (wtEGFR U251T2 and EGFRvIII U87ΔEGFR GBM cells); assay: EGFR binding assay and CCL5 expression assay by flow cytometry (anti-human Fc / anti-human CCL5); settings: protein purified from CHO cells
Description: (§2) U251T2, U87ΔEGFR, and A4780 cells were pre-blocked with 2% BSA and incubated with 1, 5, or 10 μg/ml purified Cmab-hCCL5 or 1, 5, or 10 μg/ml human IgG1 isotype control for 30 min. Murine CT2A-hEGFR cells were pre-blocked with 2% BSA and then incubated with 1, 5, or 10 μg/ml purified Cmab-mCCL5 or 1, 5, or 10 μg/ml human IgG1 isotype control for 30 min. After incubation, all cells were washed twice, and human cell lines were stained with APC-conjugated anti-human Fc (Jackson ImmunoResearch, cat #209-605-098) or APC-conjugated anti-human CCL5 (Biolegend, cat #515506, 149103) antibodies, whereas the murine CT2A-hEGFR cells were stained with APC-conjugated anti-human Fc or PE-conjugated anti-mouse CCL5 antibodies, for 20 min. The stained cells were analyzed using a Fortessa X20 flow cytometer (BD Biosciences).

[4] = molecular target: T1, EGFR (wtEGFR U251T2 and EGFRvIII U87ΔEGFR GBM cells) (Homo sapiens, UniProt P00533); assay: as above
T1 construct: U251T2 GBM cells, which express wild type EGFR (wtEGFR), U87ΔEGFR GBM cells, which express EGFRvIII; endogenous in cells; host or cells: U251T2 (wtEGFR) and U87ΔEGFR (EGFRvIII) human GBM cells
Description: as §2

GBM30 cells = assay: Flow cytometry-based phagocytosis (ADCP) assay, human macrophages; format: cell-based; settings: purified protein; vs IgG1 isotype control or vehicle
Description: For the phagocytosis assay of primary human macrophages, GBM30 cells stained with CFSE (Thermo Fisher, cat #C34554) were used as target cells. Human macrophages and target cells were co-cultured at a ratio of 1:2 for 6 hours with 5 μg/ml or 10 μg/ml of the Cmab-hCCL5 fusion protein or IgG1 isotype control in a humidified, 5% CO2 incubator at 37° C. in ultra-low-attachment 96-well U-bottom plates (Corning) in serum-free 1640 media (Life Technologies). The co-cultured cells were harvested by centrifuging at 400×g for 5 min at 4° C. and stained with an anti-human CD45 antibody (Biolegend, cat #368516) to identify macrophages. All flow cytometry data were collected using a Fortessa X20 flow cytometer (BD Biosciences). Phagocytosis was measured as the number of CD45^+CFSE^+ macrophages, quantified as a percentage of the total CD45^+ cells.

EGFR^− A2780 cells = assay: EGFR binding assay by flow cytometry on EGFR-negative cells; design: species or system human; settings: protein purified from CHO cells; vs IgG1 isotype control
Description: as §2

[5] = system: human NK cells, macrophages, CD4^+ T cells, and CD8^+ T cells; assay: Transwell cell migration assay, human immune cells; format: cell-based; settings: protein purified from CHO cells; vs IgG1 isotype control
Description: The migration capability of NK cells, T cells, and macrophages was determined using transwell chambers (Corning). Serum-starved NK cells, T cells or macrophages (10^6/well) were seeded to an upper chamber. Recombinant human (rh) CCL5, recombinant mouse (rm) CCL5, purified Cmab-hCCL5 or Cmab-mCCL5, or the supernatant containing Cmab-hCCL5 or Cmab-mCCL5 secreted from OV-Cmab-hCCL5- or OV-Cmab-mCCL5-infected U251T2 GBM cells was added to the lower chamber. The chambers were incubated at 37° C. in 5% CO2 for 12 h. Cells that migrated to the lower face of the porous membrane in the lower chamber were counted. For the T cells and NK cells, the pore size of the transwell membrane used in this assay was 3 μm as previously described (61,62). For the macrophages, the pore size of the transwell membrane used in this assay was […] as previously described (63).

[6] = system: U251T2 (wtEGFR), GBM30, Gli36ΔEGFR (EGFRvIII) GBM cells; assay: NK cell ADCC, 51Cr release assay, EGFR+ targets; format: cell-based, human; settings: purified protein; wtEGFR and EGFRvIII tumor cells; vs IgG1 isotype control
Description: as §1

Compound | NK cell cytotoxicity (Gli36ΔEGFR cells; 1 μM TMZ overnight pre-treatment alone) | cytokine expression in human macrophages (real-time RT-PCR) [1] | NK cell cytotoxicity (Gli36ΔEGFR cells; 1 μM TMZ pre-treatment plus 5 μg/ml Cmab-hCCL5, vs either treatment alone) | CD69 expression on NK cells ([2]; 6 hours, vs IgG1 isotype control or GBM30 cells alone) | granzyme B expression in NK cells ([2]; relative to controls) | CCL5 on cell surface (anti-CCL5 antibody) ([3]; EGFR^+ cells) | binding to tumor cells (anti-human Fc antibody) ([3]; U251T2 (wtEGFR) and U87ΔEGFR (EGFRvIII) cells) | secretion of cetuximab or CCL5, comparison of Cmab-CCL5 and reverse-order CCL5-Cmab ([4]; FIGS. 14C, 14D: flow cytometry on U251T2 with anti-Fc / anti-hCCL5) | binding to surface-expressed EGFR (anti-Fc and anti-CCL5 antibodies) ([4]; protein produced by OV-Cmab-hCCL5-infected U251T2 GBM cells) | ADCP against GBM30 cells by human macrophages (GBM30 cells) | binding to EGFR^− A2780 cells (anti-human Fc antibody) (EGFR^− A2780 cells) | migration of human NK cells, macrophages, CD4^+ and CD8^+ T cells [5] | NK cell ADCC [6]
Cn1nnc2c(C(N)=O)ncn2c1=O [TMZ, Temozolomide, reference compound] | enhanced NK cell cytotoxicity |  |  |  |  |  |  |  |  |  |  |  | 
Cmab-hCCL5: bispecific knob-into-hole human IgG1 Fc fusion protein: cetuximab scFv arm and human CCL5 arm |  | significantly increased IL-1B, IL-6, IL-12, and NOS2 expression | significantly higher degree of NK cell cytotoxicity | significantly increased the expression of CD69 | increased granzyme B expression | detected CCL5 on EGFR^+ cell surfaces | selectively bound to tumor cells expressing wtEGFR or EGFRvIII | no difference | confirmed to bind to surface-expressed EGFR | induced a significantly higher level of ADCP | indistinguishable from that of IgG1 isotype control | dose-dependent increase in the migration | significantly induced NK cell ADCC
